From patent publication US20260042764A1, “COMPOSITIONS AND METHODS FOR INHIBITION OF KRAS” (TheRas, Inc., priority 2022, published 2026)

How the values were obtained:
GP2d cells (KRAS G12D) = experiment: Cell-based pERK HTRF assay in GP2d cell (Biological Example 2); conditions: GP2d, GP2d (KRAS G12D) cells
How it was run: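 HTRF read-out of pERK (excitation 320 nm, emission 615 nm) after lysates sat 4–24 h at room temperature with Eu cryptate and d2 antibodies.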

[1] = molecular target: T1, Avi-KRAS G12D (2-169) GTP/RAF1 RBD-3xFLAG (51-131) (Homo sapiens, UniProt P01116, G12D); experiment: Raf1-KRAS G12D-GTP disruption HTRF assay (Biological Example 3); format: binding; conditions: KRAS G12D, GTP-loaded
T1 construct: Avi-KRAS G12D (2-169)
T1 sequence (P01116 2-169 isoform P01116-2 G12D): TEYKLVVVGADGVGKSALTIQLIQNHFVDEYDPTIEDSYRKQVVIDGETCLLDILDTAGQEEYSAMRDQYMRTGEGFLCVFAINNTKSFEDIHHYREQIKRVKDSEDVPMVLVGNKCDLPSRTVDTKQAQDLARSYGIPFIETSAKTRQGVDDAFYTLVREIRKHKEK
Description: (§1) Biological Example 3: Disrupting RAS-Effector Binding HTRF Assay
(§2) A protein:protein interaction (PPI) Homogeneous Time Resolved Fluorescence (HTRF) assay was used to determine the effectiveness of compounds in disrupting KRAS protein and effector (RAF1) binding.
(§3) The HTRF assay used the following reagents and proteins: (i) 50 nM Avi-KRAS G12D (2-169) GTP/RAF1 RBD-3xFLAG (51-131): (ii) 50 nM Avi-KRAS G12C (2-169) GTP/RAF1 RBD-3xFLAG (51-131): (iii) 50 nM Avi-KRAS G12V (2-169) GTP/RAF1 RBD-3xFLAG (51-131); (iv) 50 nM Avi-KRAS WT (2-169) GTP/RAF1 RBD-3xFLAG (51-131); and (v) 75 nM 3xFLAG-RAF1 RBD (51-131)-Avi. The assay buffer included: 50 mM Tris pH 7.5 (Invitrogen, 15567-027), 100 mM NaCl (Sigma, S5150-IL), 5 mM MgCl2 (Sigma, 63069), 0.1% BSA (Sigma, A7030), 0.01% Tween 20 (Sigma, P7949), 10% DMSO (Cell Signaling, 12611). The bead buffer included: 50 mM Tris pH 7.5 (Invitrogen, 15567-027), 0.01% Tween 20 (Sigma, P7949). An assay volume of 20 μL was used in a 384 well plate-low volume format. Compound titration: 30-0.005 μM, 3x dilution series.
(§4) The HTRF assay employed the following protocol:
(§5) Compounds were dispensed in assay plate (384-well, Grenier Bio-One #784075) using Echo (model 555) with dose response settings: 200 nL final volume, titration from 30 μM as a 10-point dilution series. Proteins and HTRF reagents were mixed and dispensed onto plates, 20 μL per well, and then incubated for 1 h at room temperature, with 700 rpm shaking.
(§6) Plates were analyzed on an Envision plate reader using the following setting: Excitation 320 nm, Bandwidth 75 nm; Emission 615 nm, Bandwidth 85 nm; Gain 100%; Flashes 100; Lag 60 μs. Data was reported as percentage of activity, with DMSO as 100%. Data was plotted and analyzed using Prism 8.
(§7) The biochemical Raf1-KRAS G12D/G12V/G12C/WT-GTP disruption assay IC50 of selected compounds described herein are shown in Table 12.

[2] = molecular target: T2, Avi-KRAS G12C (2-169) GTP/RAF1 RBD-3xFLAG (51-131) (Homo sapiens, UniProt P01116, G12C); experiment: Raf1-KRAS G12C-GTP disruption HTRF assay (Biological Example 3); format: binding; conditions: KRAS G12C, GTP-loaded
T2 construct: Avi-KRAS G12C (2-169)
T2 sequence (P01116 2-169 isoform P01116-2 G12C): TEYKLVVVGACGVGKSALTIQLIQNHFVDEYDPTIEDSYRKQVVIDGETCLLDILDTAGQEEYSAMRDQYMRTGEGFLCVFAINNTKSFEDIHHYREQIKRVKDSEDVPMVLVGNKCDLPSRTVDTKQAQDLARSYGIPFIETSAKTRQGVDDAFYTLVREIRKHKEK
Description: as §1, §2, §3, §4, §5, §6, §7

[3] = molecular target: T3, Avi-KRAS G12V (2-169) GTP/RAF1 RBD-3xFLAG (51-131) (Homo sapiens, UniProt P01116, G12V); experiment: Raf1-KRAS G12V-GTP disruption HTRF assay (Biological Example 3); format: binding; conditions: KRAS G12V, GTP-loaded
T3 construct: Avi-KRAS G12V (2-169)
T3 sequence (P01116 2-169 isoform P01116-2 G12V): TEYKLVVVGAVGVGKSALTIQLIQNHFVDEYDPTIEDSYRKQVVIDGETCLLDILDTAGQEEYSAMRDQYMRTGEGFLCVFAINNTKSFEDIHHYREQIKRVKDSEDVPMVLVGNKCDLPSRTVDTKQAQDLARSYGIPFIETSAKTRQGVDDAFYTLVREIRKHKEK
Description: as §1, §2, §3, §4, §5, §6, §7

[4] = molecular target: T4, Avi-KRAS WT (2-169) GTP/RAF1 RBD-3xFLAG (51-131) (Homo sapiens, UniProt P01116); experiment: Raf1-KRAS WT-GTP disruption HTRF assay (Biological Example 3); format: binding; conditions: KRAS WT, GTP-loaded
T4 construct: Avi-KRAS WT (2-169)
T4 sequence (P01116 2-169 isoform P01116-2): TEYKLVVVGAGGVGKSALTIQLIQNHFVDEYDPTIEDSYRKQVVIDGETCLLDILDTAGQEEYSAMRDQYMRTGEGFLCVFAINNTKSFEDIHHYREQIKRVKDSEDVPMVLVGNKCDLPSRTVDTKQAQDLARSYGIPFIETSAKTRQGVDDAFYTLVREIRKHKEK
Description: as §1, §2, §3, §4, §5, §6, §7

SW620 cells (KRAS G12V) = experiment: Cell-based pERK HTRF assay in SW620 cell (Biological Example 4); conditions: Homo sapiens, SW-620, SW620 (KRAS G12V) cells
How it was run: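 SW620 seeded in RPMI/10% FBS, next day dosed 4 h (top 1 μM, half-log, 9 pts, 0.25% DMSO). Lysed, pERK by d2/Eu cryptate HTRF, 4–24 h RT, 615 nm read.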

[5] = molecular target: T5, Avi-KRAS G12D (1-169) GppNHp/RAF1 RBD-3xFLAG (52-151) (Homo sapiens, UniProt P01116, G12D); experiment: Raf1-KRAS G12D-GppNHP disruption HTRF assay (Biological Example 1); format: binding; conditions: KRAS G12D, GppNHp-loaded; class symbols
T5 construct: Avi-KRAS G12D (1-169)
T5 sequence (P01116 1-169 isoform P01116-2 G12D): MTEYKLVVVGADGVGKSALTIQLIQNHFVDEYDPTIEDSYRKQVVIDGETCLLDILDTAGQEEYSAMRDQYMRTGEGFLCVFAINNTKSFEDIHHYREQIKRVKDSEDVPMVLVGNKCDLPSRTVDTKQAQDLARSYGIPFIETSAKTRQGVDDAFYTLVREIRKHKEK
How it was run: (§8)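 Protein mix, 1 h RT, 700 rpm; reagent mix, 1 h RT, 700 rpm; HTRF read. Buffer Tris pH 7.5/NaCl/MgCl2/BSA/Tween, 10% DMSO. Output % activity, DMSO = 100%.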

[6] = molecular target: T6, Avi-KRAS G12R (1-169) GppNHp/RAF1 RBD-3xFLAG (52-151) (Homo sapiens, UniProt P01116, G12R); experiment: Raf1-KRAS G12R-GppNHP disruption HTRF assay (Biological Example 1); format: binding; conditions: KRAS G12R, GppNHp-loaded; class symbols
T6 construct: Avi-KRAS G12R (1-169)
T6 sequence (P01116 1-169 isoform P01116-2 G12R): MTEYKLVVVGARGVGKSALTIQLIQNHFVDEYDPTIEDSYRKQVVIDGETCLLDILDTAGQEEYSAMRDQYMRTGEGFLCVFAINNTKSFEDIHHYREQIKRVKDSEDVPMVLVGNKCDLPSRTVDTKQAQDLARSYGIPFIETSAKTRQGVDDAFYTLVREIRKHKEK
How it was run: as §8

[7] = molecular target: T7, Avi-KRAS G12V (1-169) GppNHp/RAF1 RBD-3xFLAG (52-151) (Homo sapiens, UniProt P01116, G12V); experiment: Raf1-KRAS G12V-GppNHP disruption HTRF assay (Biological Example 1); format: binding; conditions: KRAS G12V, GppNHp-loaded; class symbols
T7 construct: Avi-KRAS G12V (1-169)
T7 sequence (P01116 1-169 isoform P01116-2 G12V): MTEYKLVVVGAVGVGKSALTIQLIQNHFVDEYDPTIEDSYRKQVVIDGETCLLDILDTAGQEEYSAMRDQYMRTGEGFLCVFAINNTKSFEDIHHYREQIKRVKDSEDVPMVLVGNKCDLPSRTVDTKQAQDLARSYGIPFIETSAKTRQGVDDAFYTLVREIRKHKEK
How it was run: as §8

[8] = molecular target: T8, Avi-KRAS WT (1-169) GppNHp/RAF1 RBD-3xFLAG (52-151) (Homo sapiens, UniProt P01116); experiment: Raf1-KRAS WT-GppNHP disruption HTRF assay (Biological Example 1); format: binding; conditions: KRAS WT, GppNHp-loaded; class symbols
T8 construct: Avi-KRAS WT (1-169)
T8 sequence (P01116 1-169 isoform P01116-2): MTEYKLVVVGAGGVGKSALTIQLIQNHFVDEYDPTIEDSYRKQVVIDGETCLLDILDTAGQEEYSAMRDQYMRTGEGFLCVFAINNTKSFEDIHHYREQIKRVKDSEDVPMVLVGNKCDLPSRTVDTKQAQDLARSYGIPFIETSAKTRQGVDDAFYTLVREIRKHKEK
How it was run: as §8

CCN(c1nc(OC[C@@]23CCCN2C[C@H](F)C3)nc2c(F)c(-c3ccc(F)c4sc(N)c(C#N)c34)c(C(F)(F)F)cc12)[C@H]1CCN(C(=O)O[C@H]2CCCOC2)C1 (atropisomer, axis not shown) [Compound 822]
IC50 (GP2d cells (KRAS G12D)): < 100 nM
IC50 [1]: 100 to 1000 nM
IC50 [2]: 100 to 1000 nM
IC50 [3]: 100 to 1000 nM
IC50 [4]: 100 to 1000 nM
IC50 (SW620 cells (KRAS G12V)): < 100 nM

CCN(c1nc(OC[C@@]23CCCN2C[C@H](F)C3)nc2c(F)c(-c3ccc(F)c4sc(N)c(C#N)c34)c(C(F)(F)F)cc12)[C@H]1C[C@H]2[C@@H](C)OC(=O)N2C1 (atropisomer, axis not shown) [Compound 823]
IC50 (GP2d cells (KRAS G12D)): < 100 nM
IC50 [1]: 100 to 1000 nM
IC50 [2]: 100 to 1000 nM
IC50 [3]: 100 to 1000 nM
IC50 [4]: 100 to 1000 nM
IC50 (SW620 cells (KRAS G12V)): < 100 nM

CCN(c1nc(OC[C@@]23CCCN2C[C@H](F)C3)nc2c(F)c(-c3ccc(F)c4sc(N)c(C#N)c34)c(C(F)(F)F)cc12)[C@H]1CCN(C(=O)O[C@@H]2CCOC2)[C@@H]1C (atropisomer, axis not shown) [Compound 824]
IC50 (GP2d cells (KRAS G12D)): < 100 nM
IC50 [1]: 100 to 1000 nM
IC50 [2]: 100 to 1000 nM
IC50 [3]: 100 to 1000 nM
IC50 [4]: 100 to 1000 nM
IC50 (SW620 cells (KRAS G12V)): < 100 nM

CCN(c1nc(OC[C@@]23CCCN2C[C@H](F)C3)nc2c(F)c(-c3ccc(F)c4sc(N)c(C#N)c34)c(C(F)(F)F)cc12)[C@H]1CCN(C(=O)OC2CCOCC2)[C@@H]1C (atropisomer, axis not shown) [Compound 825]
IC50 (GP2d cells (KRAS G12D)): < 100 nM
IC50 [1]: 100 to 1000 nM
IC50 [2]: 100 to 1000 nM
IC50 [3]: 100 to 1000 nM
IC50 [4]: 100 to 1000 nM
IC50 (SW620 cells (KRAS G12V)): < 100 nM

CO[C@H](C)C(=O)N1CC[C@H](N(c2nc(OC[C@@]34CCCN3C[C@H](F)C4)nc3c(F)c(-c4ccc(F)c5sc(N)c(C#N)c45)c(C(F)(F)F)cc23)C2CC2)C1 (atropisomer, axis not shown) [Compound 826]
IC50 (GP2d cells (KRAS G12D)): < 100 nM
IC50 [1]: 100 to 1000 nM
IC50 [2]: 1000 to 10000 nM
IC50 [3]: 1000 to 10000 nM
IC50 [4]: 1000 to 10000 nM
IC50 (SW620 cells (KRAS G12V)): < 100 nM

CCN(c1nc(OC[C@@]23CCCN2C[C@H](F)C3)nc2c(F)c(-c3ccc(F)c4sc(N)c(C#N)c34)c(C(F)(F)F)cc12)[C@@H]1CC[C@@H](C(=O)N(C)C)C1 (atropisomer, axis not shown) [Compound 827]
IC50 (GP2d cells (KRAS G12D)): < 100 nM
IC50 [1]: 1000 to 10000 nM
IC50 [2]: 1000 to 10000 nM
IC50 [3]: 1000 to 10000 nM
IC50 [4]: 1000 to 10000 nM
IC50 (SW620 cells (KRAS G12V)): < 100 nM

CCN(c1nc(OC[C@@]23CCCN2C[C@H](F)C3)nc2c(F)c(-c3ccc(F)c4sc(N)c(C#N)c34)c(C(F)(F)F)cc12)[C@H]1C[C@H](C(=O)N(C)C)C1 (atropisomer, axis not shown) [Compound 950]
IC50 [1]: 100 to 1000 nM
IC50 [2]: 100 to 1000 nM
IC50 [3]: 100 to 1000 nM
IC50 [4]: 100 to 1000 nM

CCN(c1nc(OCC23CCCN2CC(F)C3)nc2c(F)c(-c3ccc(F)c4sc(N)c(C#N)c34)c(C(F)(F)F)cc12)C1CCN(C(=O)c2oncc2C)C1 (stereo not shown) [Compound 804]
IC50 [5]: < 100 nM
IC50 [6]: < 100 nM
IC50 [7]: < 100 nM
IC50 [8]: < 100 nM
IC50 (GP2d cells (KRAS G12D); pERK HTRF, class symbols): < 100 nM
IC50 (SW620 cells (KRAS G12V); pERK HTRF, class symbols): < 100 nM
